Assay results: US4256642A, “Pharmaceutically active 2,9-dioxatricyclo[4,3,1,0^3,7 ] decanes” (Kali-Chemie Pharma GmbH, priority 1975, dated 1981)

Assays:
[1] = Acute toxicity LD50 i.p. (Mouse); settings: in vivo, ip
Description: (§1) The in vivo activity of representative compounds of the present invention was determined as set forth in Table I below by administration to mice in pharmaceutically effective amounts.

[2] = system: Mouse; assay: Analgesia, Phenylbenzoquinone test (Writing), p.o. (Mouse); type: in vivo; settings: for ED50: po, Phenylbenzoquinone test; for Analgesia relative to Propoxyphene: footnote (b) to analgesia ED50 p.o.
Description: as §1
Analgesia ED50 p.o.(a)(*)
(a) Phenylbenzoquinone test (Writing

[3] = system: Mouse; assay: Lowered rectal temp. p.o. (Mouse); type: in vivo; settings: po
Description: as §1
Lowered rectal temp. ED50 p.o.(*)

SMILES	LD50 [1]	ED50 [2]	ED50 [3]	Analgesia relative to Propoxyphene [2]
COC1O[C@H]2O[C@]3(C)[C@@H](O)C[C@H]([C@H]2C)[C@H]13 (some centres unmarked) [compound 1246]	> 800 mg/kg	68 mg/kg	100 mg/kg	
C[C@@H]1[C@H]2OC[C@H]3[C@@H]1C[C@@H](O)[C@@]3(C)O2 [compound 2455]	406 mg/kg	< 10 mg/kg	10 mg/kg	≥ Propoxyphene
CC(=O)O[C@H]1C[C@@H]2[C@H](C)[C@H]3OC[C@@H]2[C@]1(C)O3 [compound 2614]	822 mg/kg	< 50 mg/kg	100 mg/kg	
CNC(=O)O[C@@H]1C[C@@H]2[C@H](C)[C@H]3OC[C@@H]2[C@]1(C)O3 [compound 2648]	800 mg/kg	< 10 mg/kg	< 100 mg/kg	
C[C@@H]1[C@H]2OC[C@H]3[C@@H]1C[C@H](O)[C@@]3(C)O2 [compound 2422]	920 mg/kg	< 50 mg/kg	400 mg/kg	
C[C@@H]1[C@H]2OC[C@H]3[C@@H]1CC(=O)[C@@]3(C)O2 [compound 2619]	1600 mg/kg	< 10 mg/kg	25 mg/kg	≥ Propoxyphene
CNC(=O)O[C@H]1C[C@@H]2[C@H](C)[C@H]3OC[C@@H]2[C@]1(C)O3 [compound 2624]	739 mg/kg	< 50 mg/kg	32 mg/kg	
COC1O[C@H]2O[C@]3(C)[C@H](O)C[C@H]([C@H]2C)[C@H]13 (some centres unmarked) [compound 1561]	> 800 mg/kg	100 mg/kg	100 mg/kg	
